Assay results from patent US20080234202A1, “Non-natural amino acids and neurotensin analogues” (priority 2004, published 2008).
Counter-ions that a name gives are not always drawn. Like-named read-outs stand apart in the source and are kept apart here. Marks after values point to notes of the source that are not given here. Where a SMILES comes first, the peptide text is derived from it. [ ]: non-standard residue; d: D form. The star is where a group is joined. X4 = [N-]=[N+]=N[C@@H](CCCCCN)C(=O)*; X2 = C[C@@H](CCC[N+](C)(C)C)C(=O)*; Tle = CC(C)(C)[C@H](N)C(=O)O; X1 = C[C@@H](CCCCCN)C(=O)*

What was measured:
Tail flick assay = conditions: ABS212 10 mg/kg, Morphine 5 mg/kg
Formalin assay = conditions: morphine 5 mg/kg, approximately equimolar
NTR-1 = NTR-1 (Homo sapiens, UniProt P30989); assay: Competitive NTR-1 binding versus radiolabeled NT[8-13]
NTR-1, sequence (P30989 whole entry, species assumed): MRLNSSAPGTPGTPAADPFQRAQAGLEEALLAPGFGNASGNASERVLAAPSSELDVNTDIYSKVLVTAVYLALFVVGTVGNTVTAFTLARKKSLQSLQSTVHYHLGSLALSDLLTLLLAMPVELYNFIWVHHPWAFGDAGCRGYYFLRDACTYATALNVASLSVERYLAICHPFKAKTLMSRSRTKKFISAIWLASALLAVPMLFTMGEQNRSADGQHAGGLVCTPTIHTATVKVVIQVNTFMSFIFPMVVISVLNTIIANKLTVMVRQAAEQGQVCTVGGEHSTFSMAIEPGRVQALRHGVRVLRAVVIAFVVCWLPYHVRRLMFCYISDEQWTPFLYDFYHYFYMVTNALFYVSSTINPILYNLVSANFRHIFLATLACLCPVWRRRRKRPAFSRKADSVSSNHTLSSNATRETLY

NTR-2 [1] = molecular target: NTR-2 (Rattus norvegicus, UniProt Q63384); conditions: for Tmax (I.P.) of %MPE / MPE (I.P.): IP at 10 mg/kg; for MPE (I.P.): hotplate 52 C, cutoff 30 sec; for asterisk at peptide name: significant activity in the hotplate assay: Table 13; for MPE (oral) / Tmax (Oral) of %MPE: orally at 20 mg/kg
NTR-2 (Rattus norvegicus, UniProt Q63384), sequence (Q63384 whole entry): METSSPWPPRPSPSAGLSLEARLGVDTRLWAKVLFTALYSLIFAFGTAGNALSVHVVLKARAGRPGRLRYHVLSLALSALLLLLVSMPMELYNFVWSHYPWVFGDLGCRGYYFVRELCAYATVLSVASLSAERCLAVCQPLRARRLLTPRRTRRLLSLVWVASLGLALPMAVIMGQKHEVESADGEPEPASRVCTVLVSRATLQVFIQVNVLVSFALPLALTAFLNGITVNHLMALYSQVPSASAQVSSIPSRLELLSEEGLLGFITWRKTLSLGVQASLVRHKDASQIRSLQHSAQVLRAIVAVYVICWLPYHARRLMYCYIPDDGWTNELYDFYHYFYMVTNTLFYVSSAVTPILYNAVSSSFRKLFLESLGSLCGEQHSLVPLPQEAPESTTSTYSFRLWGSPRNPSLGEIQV
Procedure: Animals. […] (230-260 g) or Harlan, Prattville Ala.
The Hotplate Assay. The hotplate assay, a standard rat model for […] pain (see Le Bars et al., Pharmacol. Rev. 53: 597-652 (2001) and Chapman et al., Pain 22:1-31 (2002)), was performed as follows. A hotplate maintained at 52° C. to 53° C. was enclosed on four sides in a plexiglass chamber that extended 6 in. above the plate. Animals were placed on the plate, and the latency between the time a rat was placed on the surface and when it lifts or licks a back paw (indicative of pain sensation) was determined. Animals are removed immediately at the cutoff latency of 30 seconds. Assays are scored as the percent of maximal possible effect (% MPE) defined as 100%, which corresponds to the rats remaining on the hotplate for 30 seconds without responding. Thus, % MPE are calculated using the following equation: % MPE=[(post-drug latency-pre-drug latency)/(cut-off pre-drug latency)]×100%. N=6 or greater for all experiments.
Values for each set of experiments will be submitted to analysis of variance, with dose (vehicle and 5 levels) as the factor. […] An effect will be considered significant if p<0.05.
Tmax indicates the time after dosing in which a maximum response was observed.
Initial screens of all peptides included (1) evaluating their analgesic ability when dosed IP or orally (indicative of NTR-2 agonism) and (2) evaluating their ability to induce hypothermia when IP, a secondary effect of NTR-1 agonist activity.

NTR-2 [2] = molecular target: NTR-2 (Homo sapiens, UniProt O95665); assay: Competitive NTR-2 binding versus radiolabeled NT[8-13]
NTR-2 (Homo sapiens, UniProt O95665), sequence (O95665 whole entry, species assumed): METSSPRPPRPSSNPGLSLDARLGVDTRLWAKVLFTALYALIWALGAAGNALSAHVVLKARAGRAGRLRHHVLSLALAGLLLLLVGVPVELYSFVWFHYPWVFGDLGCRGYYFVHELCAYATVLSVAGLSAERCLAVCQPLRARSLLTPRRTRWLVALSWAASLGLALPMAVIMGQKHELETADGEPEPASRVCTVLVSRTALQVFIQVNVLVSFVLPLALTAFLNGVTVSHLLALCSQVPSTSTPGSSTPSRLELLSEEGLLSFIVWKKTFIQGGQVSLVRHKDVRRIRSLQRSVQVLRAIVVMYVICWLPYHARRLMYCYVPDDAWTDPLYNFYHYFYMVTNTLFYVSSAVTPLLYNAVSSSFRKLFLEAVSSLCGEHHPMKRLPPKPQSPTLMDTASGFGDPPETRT

[3] = Acute toxicity, clinical observation and maximum tolerated dose in rats; format: in vivo, rat
Procedure: During the 2 and 24 hour post-dosing clinical observation periods, measurements of core body temperatures were taken.

[4] = Pharmacokinetics of ABS212 in Sprague-Dawley rats; format: in vivo, rat; conditions: for Vd: read-out: volume of distribution at terminal phase; for half-life: read-out: half-life (T1/2) (converted); for clearance: read-out: systemic clearance (converted)
Source text: These samples were used for the determination of plasma parent drug concentrations by LC/MS/MS for estimating pharmacokinetic parameters and oral bioavailability.

[5] = rat, in vivo
Procedure: Cataleptic Analysis. In laboratory tests, catalepsy is characterized by the inability of an animal to correct its position after placement in an unnatural posture. […] To circumvent these potential confounding factors, tests are performed on an animal only once in a quiet, controlled environment.
Catalepsy Assessment. […] Rats were given an IP injection of peptide (5 mg/Kg), saline, or haloperidol (1 mg/kg). After 3 hours, catalepsy was measured using the horizontal bar test. Briefly, the front paws were placed directly on a horizontal bar 5 mm in diameter placed 7.5 cm above the cage floor. The rat was held in this position for 3 sec and then released. The time from release until the paws return to the cage floor was measured and recorded. A cut-off time of 30 sec was observed; this indicated a fully cataleptic animal as cataleptic animals are frozen to the bar. […] Measures were repeated every 30 min for 4 hr. Data are means±SEM (p<0.01).
After 2 h, catalepsy was measured using the horizontal bar test. Data are means±SEM (p<0.01).

[6] = d-Amphetamine induced hyperlocomotion and spontaneous locomotor activity; format: in vivo, rat; conditions: Table 11
Source text: This model operates on the assumption that the direct stimulation of DA receptors within the mesolimbic DA system is responsible for the locomotor response.
Sound- and light-attenuated locomotor cages are used to measure the ability of potential candidates to decrease d-amphetamine-induced hyperactivity.
d-Amphetamine induced hyperlocomotion. Experimentally I male Sprague-Dawley rats were housed as described above. Rats were handled for three days prior to testing to minimize experimenter induced hyperlocomotion on test day. For experiments, sound- and light-attenuated automated photocell beam activity chambers (AccuScan Instruments, Inc., Columbus, Ohio) were used to measure locomotion. Cages were connected to a VersaMax Analyzer (AccuScan) in conjunction with an IBM computer using VersaMax 1.80-0146 software (AccuScan) to record vertical and horizontal activity. Total activity values recorded were the sum of vertical and horizontal activity.
Each animal's activity was measured by how many times per minute the animal “trips” a photobeam in a computer-controlled photocell activity chamber (San Diego Instruments, San Diego, Calif.). […] Doses were assigned so that each was assessed in 12 chambers that were distributed over the apparatus, which controls for variations in lighting, etc. of the different chambers. […]

in vitro = conditions: plasma
[7] = Sprague-Dawley, rat, plasma, IV bolus 1 mg/kg
[8] = Sprague-Dawley, rat, plasma, IV bolus 2.5 mg/kg
[9] = Sprague-Dawley, rat, plasma, IV bolus 5 mg/kg
[10] = Sprague-Dawley, rat, plasma, oral 50 mg/kg

CN1CC[C@]23c4c5ccc(O)c4O[C@H]2[C@@H](O)C=C[C@H]3[C@H]1C5 [Morphine, reference compound]
MPE (0 min) (Tail flick assay): 0.03 +/− 0.05 | MPE (30 min) (Tail flick assay): 63.7 +/− 41.9 | MPE (60 min) (Tail flick assay): 67.5 +/− 25.8 | duration of activity of morphine (Formalin assay): loses activity after 30 minutes

X-Arg-Pro-Tyr-isoleu-Leu [ABS19]
EC50 (NTR-1; competitive binding, Table 12, read-out: NTR-1): 1.2 ± 0.7 nM

Orn-Arg-Pro-Tyr-t-Leu-Leu [ABS233]
Tmax (I.P.) of %MPE (NTR-2 [1]; 10 mg/kg): 45 | MPE (I.P.) (NTR-2 [1]; 10 mg/kg): 51%

hLys-Arg-Pro-Tyr-t-Leu-Leu [ABS225]
Tmax (I.P.) of %MPE (NTR-2 [1]): 15-45 | asterisk at peptide name: significant activity in the hotplate assay (NTR-2 [1]): ABS225* | MPE (I.P.) (NTR-2 [1]): 100% | MPE (oral) (NTR-2 [1]; hotplate): 38% | Tmax (Oral) of %MPE (NTR-2 [1]): 30

CCNC(=N)NCCC[C@H](N=[N+]=[N-])C(=O)N[C@@H](CCCNC(=N)N)C(=O)N1CCC[C@H]1C(=O)N[C@@H](Cc1ccc(O)cc1)C(=O)N[C@H](C(=O)N[C@@H](CC(C)C)C(=O)O)[C@@H](C)CC [ABS17, X-Arg-Pro-Tyr-isoleu-Leu]
EC50 (NTR-1): 0.25 ± 0.07 nM

CC(C)C[C@H](NC(=O)[C@@H](NC(=O)[C@H](Cc1ccc(O)cc1)NC(=O)[C@@H]1CCCN1C(=O)[C@H](CCCNC(=N)N)NC(=O)[C@H](CCCCCN)N=[N+]=[N-])C(C)(C)C)C(=O)O [ABS13, N3-L-homolysine-Arg-Pro-Tyr-tertLeu-Leu-COOH] (X4-RPY[Tle]L-OH)
EC50 (NTR-2 [2]): 11.1 ± 0.1 nM | EC50 (NTR-1): 5.7 ± 0.37 nM

CC(C)C[C@H](NC(=O)[C@@H](NC(=O)[C@H](Cc1ccc(O)cc1)NC(=O)[C@@H]1CCCN1C(=O)[C@H](CCCNC(=N)N)NC(=O)[C@@H](C)CCCCCN)C(C)(C)C)C(=O)O [ABS201 HCl] (X1-RPY[Tle]L-OH)
clinical observation 2 hour post-dosing ([3]; 50 mg/kg IV): all animals appeared grossly normal although marked hypothermia was present | clinical observation 24 hour post-dosing ([3]; 50 mg/kg IV): all animals appeared grossly normal; hypothermia was absent | acute behaviour during intravenous dosing ([3]; 50 mg/kg IV, slow push via tail vein): noticeably sedate | clinical observation after oral dosing ([3]; 250 mg/kg PO): appeared grossly normal at all time points

CC(C)C[C@H](NC(=O)[C@@H](NC(=O)[C@H](Cc1ccc(O)cc1)NC(=O)[C@@H]1CCCN1C(=O)[C@H](CCCNC(=N)N)NC(=O)[C@@H](C)CCC[N+](C)(C)C)C(C)(C)C)C(=O)O [ABS-212.2HCL] (X2-RPY[Tle]L-OH)
clearance as % of rat hepatic blood flow (3.31 L/hr/kg) ([4]; IV bolus 1 mg/kg): 32.33% | clearance as % of rat hepatic blood flow (3.31 L/hr/kg) ([4]; IV bolus 5 mg/kg): 12.08% | clearance as % of rat hepatic blood flow (3.31 L/hr/kg) ([4]; IV bolus […]): 12.08% | Vd ([4]; Sprague-Dawley, rat, plasma, IV 1 mg/kg): 0.43 ± 0.15 L/kg | Vd ([4]; Sprague-Dawley, rat, plasma, IV 2.5 mg/kg): 0.15 ± 0.01 L/kg | Vd ([4]; Sprague-Dawley, rat, plasma, IV 5 mg/kg): 0.16 ± 0.06 L/kg | half-life [4, 7]: 16.8 ± 4.8 min | clearance [4, 7]: 17.8 mL/min/kg | half-life [4, 8]: 16.8 ± 6.6 min | clearance [4, 8]: 6.67 mL/min/kg | half-life [4, 9]: 17.4 ± 7.8 min | clearance [4, 9]: 6.67 mL/min/kg | AUC(0-inf) [4, 10]: 53.1 ± 39.6 ng·h/mL | Cmax [4, 10]: 27.1 ± 11.6 ng/mL | Tmax [4, 10]: 8.4 ± 3 min | bioavailability ([4]; Sprague-Dawley, rat, plasma, oral 50 mg/kg, 1 mg/kg group as IV dose data): 0.11 ± 0.08% | half-life [4, 10]: 85.2 ± 52.2 min

Boc-Arg-Pro-Tyr-t-Leu-Leu [ABS700]
Tmax (I.P.) of %MPE (NTR-2 [1]): 90 | MPE (I.P.) (NTR-2 [1]): 51%

CC[C@H](C)[C@H](NC(=O)[C@H](Cc1ccc(O)cc1)NC(=O)[C@@H]1CCCN1C(=O)[C@H](CCCNC(=N)N)NC(=O)[C@@H](N)CCCNC(=N)N)C(=O)N[C@@H](CC(C)C)C(=O)O [NT(8-13), NH2-Arg-Arg-Pro-Tyr-Ile-Leu-COOH]
Catalepsy [5]: No | Hyperlocomotion Inhibition (active routes) [6]: CNS administration | Inhibits locomotor activity (active routes) [6]: CNS administration | half-life (in vitro): 5 min

Lys-Arg-Pro-Tyr-t-Leu-Leu [ABS205]
Tmax (I.P.) of %MPE (NTR-2 [1]; 10 mg/kg): 15-30 | asterisk at peptide name: significant activity in the hotplate assay (NTR-2 [1]): ABS205* | MPE (I.P.) (NTR-2 [1]; 10 mg/kg): 86% | MPE (oral) (NTR-2 [1]; hotplate): 66% | Tmax (Oral) of %MPE (NTR-2 [1]): 30

CC[C@H](C)[C@H](NC(=O)[C@H](Cc1ccc(O)cc1)NC(=O)[C@@H]1CCCN1C(=O)[C@H](CCCNC(=N)N)NC(=O)[C@H](CCCNC(=N)N)N=[N+]=[N-])C(=O)N[C@@H](CC(C)C)C(=O)O [ABS15, X-Arg-Pro-Tyr-isoleu-Leu]
EC50 (NTR-2 [2]): 0.9 ± 0.2 nM | NTR-1/NTR-2 selectivity (NTR-2 [2]; Table 12): 2.5 | EC50 (NTR-1): 0.4 ± 0.1 nM

Lys-Arg-Pro-Tyr-t-Leu-Leu [ABS229]
Tmax (I.P.) of %MPE (NTR-2 [1]; 10 mg/kg): 60 | MPE (I.P.) (NTR-2 [1]; 10 mg/kg): 48%

Arg-Arg-Pro-Tyr-t-Leu-Leu [ABS237]
Tmax (I.P.) of %MPE (NTR-2 [1]): 30 | MPE (I.P.) (NTR-2 [1]; 10 mg/kg): 50%

1-Arg-Pro-Tyr-t-Leu-Leu [ABS202]
Tmax (I.P.) of %MPE (NTR-2 [1]; 10 mg/kg): 30-75 | asterisk at peptide name: significant activity in the hotplate assay (NTR-2 [1]): ABS202* | MPE (I.P.) (NTR-2 [1]; 10 mg/kg): 100% | % MPE (NTR-2 [1]; hotplate 52° C., cutoff 30 seconds, Table 10): 100% | % MPE (tmax, min) (NTR-2 [1]; hotplate, Table 10): 45 min | MPE (oral) (NTR-2 [1]; hotplate, 20 mg/kg): 52% | Tmax (Oral) of %MPE (NTR-2 [1]; 20 mg/kg): 45

Orn-Arg-Pro-Tyr-t-Leu-Leu [ABS209]
Tmax (I.P.) of %MPE (NTR-2 [1]; 10 mg/kg): 60 | MPE (I.P.) (NTR-2 [1]; 10 mg/kg): 89%

CC[C@H](C)[C@H](NC(=O)[C@H](Cc1ccc(O)cc1)NC(=O)[C@@H]1CCCN1C(=O)[C@H](CCCNC(=N)N)NC(=O)[C@H](CCCNC(=N)NC)N=[N+]=[N-])C(=O)N[C@@H](CC(C)C)C(=O)O [ABS16, X-Arg-Pro-Tyr-isoleu-Leu]
EC50 (NTR-1): 0.3 ± 0.05 nM

Arg-Arg-Pro-Tyr-t-Leu-Leu [ABS213]
Tmax (I.P.) of %MPE (NTR-2 [1]): 30 | MPE (I.P.) (NTR-2 [1]; 10 mg/kg): 48%
